Data as given in US8148373B2, “Compounds” (AstraZeneca AB, priority 2008, dated 2012).

How the values were obtained:
[1] = biological target: T1, Adrenergic β2 (H292 cells) (Homo sapiens, UniProt P07550); assay: Assay for Adrenergic β2 Mediated cAMP Production (concentration response, AlphaScreen cAMP detection); assay type: cell-based; conditions: for EC50: cAMP production, 60 minutes at room temperature, 300 μM rolipram, read-out: β2 pEC50 (converted); for β2 Intrinsic activity: fraction relative to the maximum activity determined for formoterol
T1 construct: endogenous in cells; host or cells: H292 cells
Outline: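 Intrinsic activity is relative to the per-experiment formoterol maximum, with pEC50 from a four-parameter logistic fit of cAMP levels quantified by AlphaScreen against standards. Cells (H292) got 300 μM rolipram for 10 min, then compound for 60 min at room temperature, 1% DMSO final.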

[2] = biological target: T2, human muscarinic acetylcholine M3 receptor (M3-ACh) (Homo sapiens, UniProt P20309); assay: Muscarinic 3 Receptor Binding Assay ([3H]NMS competition, SPA); conditions: [3H]NMS 0.1 nM, CHO-K1 cell membranes, 16 hours at room temperature; read-out: M3 pIC50 (converted)
T2 construct: expressed in transfected cells; host or cells: CHO-K1 (Chinese Hamster Ovary) cell membranes
Outline: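 Competition SPA binding of 0.1 nM [3H]NMS (quarter Kd) to membranes from CHO-K1 cells expressing human M3, in 20 mM HEPES pH 7.4, 5 mM MgCl2, 1% DMSO. Incubated 16 h at room temperature; non-specific binding with 1 µM atropine. pIC50 from 50% reduction of specific binding.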

T1 sequence (P07550 whole entry): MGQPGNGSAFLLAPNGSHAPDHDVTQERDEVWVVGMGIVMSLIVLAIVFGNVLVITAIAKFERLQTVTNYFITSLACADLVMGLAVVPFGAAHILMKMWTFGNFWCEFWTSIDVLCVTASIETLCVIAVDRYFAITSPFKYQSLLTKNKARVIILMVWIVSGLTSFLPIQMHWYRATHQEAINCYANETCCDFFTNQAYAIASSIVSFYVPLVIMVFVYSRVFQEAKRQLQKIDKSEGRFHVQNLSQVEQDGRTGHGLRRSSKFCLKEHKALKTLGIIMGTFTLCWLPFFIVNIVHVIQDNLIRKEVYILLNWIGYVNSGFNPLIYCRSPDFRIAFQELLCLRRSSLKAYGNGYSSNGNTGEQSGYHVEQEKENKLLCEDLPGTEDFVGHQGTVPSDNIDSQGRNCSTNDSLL
T2 sequence (P20309 whole entry): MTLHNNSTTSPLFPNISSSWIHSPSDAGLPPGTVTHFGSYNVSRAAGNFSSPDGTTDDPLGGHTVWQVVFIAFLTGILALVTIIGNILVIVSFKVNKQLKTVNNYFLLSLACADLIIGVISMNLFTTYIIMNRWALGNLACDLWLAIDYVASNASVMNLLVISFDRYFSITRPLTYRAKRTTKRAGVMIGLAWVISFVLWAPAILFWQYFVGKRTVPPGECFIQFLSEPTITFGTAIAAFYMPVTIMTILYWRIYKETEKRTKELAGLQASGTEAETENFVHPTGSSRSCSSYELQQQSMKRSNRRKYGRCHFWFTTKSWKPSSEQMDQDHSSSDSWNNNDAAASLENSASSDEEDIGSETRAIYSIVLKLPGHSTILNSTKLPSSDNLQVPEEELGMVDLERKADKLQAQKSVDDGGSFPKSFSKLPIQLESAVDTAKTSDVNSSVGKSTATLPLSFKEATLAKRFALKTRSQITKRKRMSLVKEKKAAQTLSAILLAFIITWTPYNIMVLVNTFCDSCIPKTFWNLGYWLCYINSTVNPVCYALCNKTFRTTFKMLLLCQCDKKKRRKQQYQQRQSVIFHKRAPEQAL

SMILES	EC50 [1] [nM]	β2 Intrinsic activity [1]	IC50 [2] [nM]
O=C(c1csc(C2CC2)n1)N1CCOC2(CCN(Cc3cc(F)cc(CCNC[C@H](O)c4ccc(O)c5[nH]c(=O)sc45)c3)CC2)C1 [Example 57, (R)-7-(2-(3-((4-(2-Cyclopropylthiazole-4-carbonyl)-1-oxa-4,9-diazaspiro[5.5]undecan-9-yl)methyl)-5-fluorophenethylamino)-1-hydroxyethyl)-4-hydroxybenzo[d]thiazol-2(3H)-one ditrifluoroacetate]	6.31	1.1	0.794
O=C(c1csc(C2CCC2)n1)N1CCOC2(CCN(Cc3cc(F)cc(CCNC[C@H](O)c4ccc(O)c5[nH]c(=O)sc45)c3)CC2)C1 [Example 58, (R)-7-(2-(3-((4-(2-Cyclobutylthiazole-4-carbonyl)-1-oxa-4,9-diazaspiro[5.5]undecan-9-yl)methyl)-5-fluorophenethylamino)-1-hydroxyethyl)-4-hydroxybenzo[d]thiazol-2(3H)-one ditrifluoroacetate]	10	0.9	6.31
O=C(c1csc(C2CCCC2)n1)N1CCOC2(CCN(Cc3cc(F)cc(CCNC[C@H](O)c4ccc(O)c5[nH]c(=O)sc45)c3)CC2)C1 [Example 59, (R)-7-(2-(3-((4-(2-Cyclopentylthiazole-4-carbonyl)-1-oxa-4,9-diazaspiro[5.5]undecan-9-yl)methyl)-5-fluorophenethylamino)-1-hydroxyethyl)-4-hydroxybenzo[d]thiazol-2(3H)-one ditrifluoroacetate]	15.8	1	7.94
Cc1csc(C(=O)N2CCOC3(CCN(Cc4cc(F)cc(CCNC[C@H](O)c5ccc(O)c6[nH]c(=O)sc56)c4)CC3)C2)c1 [Example 60, (R)-7-(2-(3-Fluoro-5-((4-(4-methylthiophene-2-carbonyl)-1-oxa-4,9-diazaspiro[5.5]undecan-9-yl)methyl)phenethylamino)-1-hydroxyethyl)-4-hydroxybenzo[d]thiazol-2(3H)-one ditrifluoroacetate]	5.01	1	3.98
CC(C)c1nc(C(=O)N2CCOC3(CCN(Cc4cc(CCNC[C@H](O)c5ccc(O)c6[nH]c(=O)sc56)ccc4Cl)CC3)C2)cs1 [Example 61, (R)-7-(2-(4-Chloro-3-((4-(2-isopropylthiazole-4-carbonyl)-1-oxa-4,9-diazaspiro[5.5]undecan-9-yl)methyl)phenethylamino)-1-hydroxyethyl)-4-hydroxybenzo[d]thiazol-2(3H)-one ditrifluoroacetate]	63.1	0.9	5.01
CC(C)c1nc(C(=O)N2CCOC3(CCN(Cc4cccc5c(CNC[C@H](O)c6ccc(O)c7[nH]c(=O)sc67)cccc45)CC3)C2)cs1 [Example 62, (R)-4-Hydroxy-7-(1-hydroxy-2-((5-((4-(2-isopropylthiazole-4-carbonyl)-1-oxa-4,9-diazaspiro[5.5]undecan-9-yl)methyl)naphthalen-1-yl)methylamino)ethyl)benzo[d]thiazol-2(3H)-one ditrifluoroacetate]	251	0.9	251
Cc1ccc(S(=O)(=O)N2CCOC3(CCN(Cc4cc(F)cc(CCNC[C@H](O)c5ccc(O)c6[nH]c(=O)sc56)c4)CC3)C2)s1 [Example 63, (R)-7-(2-(3-Fluoro-5-((4-(5-methylthiophen-2-ylsulfonyl)-1-oxa-4,9-diazaspiro[5.5]undecan-9-yl)methyl)phenethylamino)-1-hydroxyethyl)-4-hydroxybenzo[d]thiazol-2(3H)-one ditrifluoroacetate]	5.01	1	> 1000
CC(C)c1nc(C(=O)N2CCOC3(CCN(Cc4cccc(OCCNC[C@H](O)c5ccc(O)c6[nH]c(=O)sc56)c4)CC3)C2)cs1 [Example 64, (R)-4-Hydroxy-7-(1-hydroxy-2-(2-(3-((4-(2-isopropylthiazole-4-carbonyl)-1-oxa-4,9-diazaspiro[5.5]undecan-9-yl)methyl)phenoxy)ethylamino)ethyl)benzo[d]thiazol-2(3H)-one ditrifluoroacetate]	50.1	0.9	0.2
CC(C)c1nc(C(=O)N2CCOC3(CCN(Cc4cccc(SCCNC[C@H](O)c5ccc(O)c6[nH]c(=O)sc56)c4)CC3)C2)cs1 [Example 65, (R)-4-Hydroxy-7-(1-hydroxy-2-(2-(3-((4-(2-isopropylthiazole-4-carbonyl)-1-oxa-4,9-diazaspiro[5.5]undecan-9-yl)methyl)phenylthio)ethylamino)ethyl)benzo[d]thiazol-2(3H)-one ditrifluoroacetate]	100	0.9	0.631
CC(C)c1csc(C(=O)N2CCOC3(CCN(Cc4cccc(CCNC[C@H](O)c5ccc(O)c6[nH]c(=O)sc56)c4)CC3)C2)n1 [Example 66, (R)-4-Hydroxy-7-(1-hydroxy-2-(3-((4-(4-isopropylthiazole-2-carbonyl)-1-oxa-4,9-diazaspiro[5.5]undecan-9-yl)methyl)phenethylamino)ethyl)benzo[d]thiazol-2(3H)-one ditrifluoroacetate]	15.8	0.9	0.794
O=C(c1csc(CC(F)(F)F)n1)N1CCOC2(CCN(Cc3cccc(CCNC[C@H](O)c4ccc(O)c5[nH]c(=O)sc45)c3F)CC2)C1 [Example 67, (R)-7-(2-(2-Fluoro-3-((4-(2-(2,2,2-trifluoroethyl)thiazole-4-carbonyl)-1-oxa-4,9-diazaspiro[5.5]undecan-9-yl)methyl)phenethylamino)-1-hydroxyethyl)-4-hydroxybenzo[d]thiazol-2(3H)-one ditrifluoroacetate]	15.8	0.9	3.16
O=C(c1ccc2sccc2c1)N1CCOC2(CCN(Cc3cccc(CCNC[C@H](O)c4ccc(O)c5[nH]c(=O)sc45)c3F)CC2)C1 [Example 68, (R)-7-(2-(3-((4-(Benzo[b]thiophene-5-carbonyl)-1-oxa-4,9-diazaspiro[5.5]undecan-9-yl)methyl)-2-fluorophenethylamino)-1-hydroxyethyl)-4-hydroxybenzo[d]thiazol-2(3H)-one ditrifluoroacetate]	6.31	0.8	25.1
Cc1sc(C(C)C)nc1C(=O)N1CCOC2(CCN(Cc3cccc(CCNC[C@H](O)c4ccc(O)c5[nH]c(=O)sc45)c3F)CC2)C1 [Example 69, (R)-7-(2-(2-Fluoro-3-((4-(2-isopropyl-5-methylthiazole-4-carbonyl)-1-oxa-4,9-diazaspiro[5.5]undecan-9-yl)methyl)phenethylamino)-1-hydroxyethyl)-4-hydroxybenzo[d]thiazol-2(3H)-one ditrifluoroacetate]	15.8	0.9	20
CC(C)c1cc(C(=O)N2CCOC3(CCN(Cc4cccc(CCNC[C@H](O)c5ccc(O)c6[nH]c(=O)sc56)c4F)CC3)C2)cs1 [Example 70, (R)-7-(2-(2-Fluoro-3-((4-(5-isopropylthiophene-3-carbonyl)-1-oxa-4,9-diazaspiro[5.5]undecan-9-yl)methyl)phenethylamino)-1-hydroxyethyl)-4-hydroxybenzo[d]thiazol-2(3H)-one ditrifluoroacetate]	7.94	0.8	3.16
CCC(CC)c1nc(C(=O)N2CCOC3(CCN(Cc4cccc(CCNC[C@H](O)c5ccc(O)c6[nH]c(=O)sc56)c4F)CC3)C2)cs1 [Example 71, (R)-7-(2-(2-Fluoro-3-((4-(2-(pentan-3-yl)thiazole-4-carbonyl)-1-oxa-4,9-diazaspiro[5.5]undecan-9-yl)methyl)phenethylamino)-1-hydroxyethyl)-4-hydroxybenzo[d]thiazol-2(3H)-one ditrifluoroacetate]	20	0.8	5.01
CC(C)Cc1nc(C(=O)N2CCOC3(CCN(Cc4cccc(CCNC[C@H](O)c5ccc(O)c6[nH]c(=O)sc56)c4F)CC3)C2)cs1 [Example 72, (R)-7-(2-(2-Fluoro-3-((4-(2-isobutylthiazole-4-carbonyl)-1-oxa-4,9-diazaspiro[5.5]undecan-9-yl)methyl)phenethylamino)-1-hydroxyethyl)-4-hydroxybenzo[d]thiazol-2(3H)-one ditrifluoroacetate]	7.94	0.8	10
CC(C)c1ccc(C(=O)N2CCOC3(CCN(Cc4cccc(CCNC[C@H](O)c5ccc(O)c6[nH]c(=O)sc56)c4F)CC3)C2)s1 [Example 73, (R)-7-(2-(2-Fluoro-3-((4-(5-isopropylthiophene-2-carbonyl)-1-oxa-4,9-diazaspiro[5.5]undecan-9-yl)methyl)phenethylamino)-1-hydroxyethyl)-4-hydroxybenzo[d]thiazol-2(3H)-one ditrifluoroacetate]	7.94	0.9	7.94
CC(C)c1csc(C(=O)N2CCOC3(CCN(Cc4cccc(CCNC[C@H](O)c5ccc(O)c6[nH]c(=O)sc56)c4F)CC3)C2)c1 [Example 74, (R)-7-(2-(2-Fluoro-3-((4-(4-isopropylthiophene-2-carbonyl)-1-oxa-4,9-diazaspiro[5.5]undecan-9-yl)methyl)phenethylamino)-1-hydroxyethyl)-4-hydroxybenzo[d]thiazol-2(3H)-one ditrifluoroacetate]	12.6	0.9	20
